Measurements: patent US20240043404A1 (AbbVie Inc., priority 2009, published 2024)

These molecules were tested on RS4;11 cells (assay: RS4;11 cell viability assay (CellTiter Glo)). Details: 50,000 cells per well, 10% human serum, 48 hours; read-out: RS4; 11 EC50 Values.
Type: cell-based, human
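Note: acute lymphoblastic leukemia line RS4,11, EC50 derived from percentage of viable cells after treatment relative to untreated controls, cell killing taken as a measure of Bcl-2 inhibition.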
Experimental: The acute lymphoblastic leukemia (ALL) cell line RS4;11 was used as the primary human cell line to assess the cellular activity of Bcl-2 selective agents in vitro and their efficacy in vivo.
Cell cytotoxicity EC50 values were assessed using CellTiter Glo (Promega) according to the manufacturer's recommendations. The EC50 values were determined as a percentage of viable cells following treatment compared to the untreated control cells.

EC50 [nM] | Structure (SMILES)
5.06 | CC1(C)CCC(CN2CCN(c3ccc(C(=O)NS(=O)(=O)c4ccc(NCC56CC7CC(C5)C(O)C(C7)C6)c([N+](=O)[O-])c4)c(Oc4cnc5[nH]ccc5c4)c3)CC2)=C(c2ccc(Cl)cc2)C1 (stereo not drawn) [Example 199, 4-(4-{[2-(4-chlorophenyl)-4,4-dimethylcyclohex-1-en-1-yl]methyl}piperazin-1-yl)-N-{[4-({[(E)-4-hydroxy-1-adamantyl]methyl}amino)-3-nitrophenyl]sulfonyl}-2-(1H-pyrrolo[2,3-b]pyridin-5-yloxy)benzamide]
11 | CC1(C)CCC(CN2CCN(c3ccc(C(=O)NS(=O)(=O)c4ccc(NCC56CC7CC(C5)C(O)C(C7)C6)c([N+](=O)[O-])c4)c(Oc4cnc5[nH]ccc5c4)c3)CC2)=C(c2ccc(Cl)cc2)C1 (stereo not drawn) [Example 200, 4-(4-{[2-(4-chlorophenyl)-4,4-dimethylcyclohex-1-en-1-yl]methyl}piperazin-1-yl)-N-{[4-({[(Z)-4-hydroxy-1-adamantyl]methyl}amino)-3-nitrophenyl]sulfonyl}-2-(1H-pyrrolo[2,3-b]pyridin-5-yloxy)benzamide]

Same assay, conditions: Homo sapiens, RS4-11, 48 h, 50,000 cells per well, 10% human serum, 48 hours; read-out: RS4; 11 EC50 Values

Structure (SMILES) | EC50 [nM]
CC1(C)CCC(CN2CCN(c3ccc(C(=O)NS(=O)(=O)c4ccc(N[C@H]5CC[C@H](NS(C)(=O)=O)CC5)c([N+](=O)[O-])c4)c(Oc4cnc5[nH]ccc5c4)c3)CC2)=C(c2ccc(Cl)cc2)C1 [Example 189, Trans-4-(4-{[2-(4-chlorophenyl)-4,4-dimethylcyclohex-1-en-1-yl]methyl}piperazin-1-yl)-N-{[4-({4-[(methylsulfonyl)amino]cyclohexyl}amino)-3-nitrophenyl]sulfonyl}-2-(1H-pyrrolo[2,3-b]pyridin-5-yloxy)benzamide] | 144
CC1(C)CCC(CN2CCN(c3ccc(C(=O)NS(=O)(=O)c4ccc(NC5CCN(C6CC6)CC5)c(S(=O)(=O)C(F)(F)F)c4)c(Oc4cnc5[nH]ccc5c4)c3)CC2)=C(c2ccc(Cl)cc2)C1 [Example 190, 4-(4-{[2-(4-chlorophenyl)-4,4-dimethylcyclohex-1-en-1-yl]methyl}piperazin-1-yl)-N-({4-[(1-cyclopropylpiperidin-4-yl)amino]-3-[(trifluoromethyl)sulfonyl]phenyl}sulfonyl)-2-(1H-pyrrolo[2,3-b]pyridin-5-yloxy)benzamide] | 551
CC1(C)CCC(CN2CCN(c3ccc(C(=O)NS(=O)(=O)c4ccc(OCC5C[C@H]6C=C[C@@H]5C6)c([N+](=O)[O-])c4)c(Oc4cnc5[nH]ccc5c4)c3)CC2)=C(c2ccc(Cl)cc2)C1 (stereo partly drawn) [Example 201, N-({4-[(1S,4S)-bicyclo[2.2.1]hept-5-en-2-ylmethoxy]-3-nitrophenyl}sulfonyl)-4-(4-{[2-(4-chlorophenyl)-4,4-dimethylcyclohex-1-en-1-yl]methyl}piperazin-1-yl)-2-(1H-pyrrolo[2,3-b]pyridin-5-yloxy)benzamide] | 591
CN1CC(Nc2ccc(S(=O)(=O)NC(=O)c3ccc(N4CCN(CC5=C(c6ccc(Cl)cc6)CC(C)(C)CC5)CC4)cc3Oc3cnc4[nH]ccc4c3)cc2[N+](=O)[O-])CC1=O (stereo not drawn) [Example 202, 4-(4-{[2-(4-chlorophenyl)-4,4-dimethylcyclohex-1-en-1-yl]methyl}piperazin-1-yl)-N-({4-[(1-methyl-5-oxopyrrolidin-3-yl)amino]-3-nitrophenyl}sulfonyl)-2-(1H-pyrrolo[2,3-b]pyridin-5-yloxy)benzamide] | 43.8
CC1(C)C=CC(c2ccc(Cl)cc2)=C(CN2CCN(c3ccc(C(=O)NS(=O)(=O)c4ccc(NCC5CCOCC5)c([N+](=O)[O-])c4)c(Oc4cnc5[nH]ccc5c4)c3)CC2)C1 [Example 206, 4-(4-{[2-(4-chlorophenyl)-5,5-dimethylcyclohexa-1,3-dien-1-yl]methyl}piperazin-1-yl)-N-({3-nitro-4-[(tetrahydro-2H-pyran-4-ylmethyl)amino]phenyl}sulfonyl)-2-(1H-pyrrolo[2,3-b]pyridin-5-yloxy)benzamide] | 52.9
CC1(C)CCC(CN2CCN(c3ccc(C(=O)NS(=O)(=O)c4cnc(OCC5(F)CCOCC5)c(C(F)(F)F)c4)c(Oc4cnc5[nH]ccc5c4)c3)CC2)=C(c2ccc(Cl)cc2)C1 [Example 208, 4-(4-{[2-(4-chlorophenyl)-4,4-dimethylcyclohex-1-en-1-yl]methyl}piperazin-1-yl)-N-{[6-[(4-fluorotetrahydro-2H-pyran-4-yl)methoxy]-5-(trifluoromethyl)pyridin-3-yl]sulfonyl}-2-(1H-pyrrolo[2,3-b]pyridin-5-yloxy)benzamide] | 121
CO[C@H]1CC[C@H](COc2ncc(S(=O)(=O)NC(=O)c3ccc(N4CCN(CC5=C(c6ccc(Cl)cc6)CC(C)(C)CC5)CC4)cc3Oc3cnc4[nH]ccc4c3)cc2Cl)CC1 [Example 210, Trans-N-({5-chloro-6-[(4-methoxycyclohexyl)methoxy]pyridin-3-yl}sulfonyl)-4-(4-{[2-(4-chlorophenyl)-4,4-dimethylcyclohex-1-en-1-yl]methyl}piperazin-1-yl)-2-(1H-pyrrolo[2,3-b]pyridin-5-yloxy)benzamide] | 60.2

Next, values leading:

EC50 [nM] | Structure (SMILES)
2.41 | CC1(C)CCC(CN2CCN(c3ccc(C(=O)NS(=O)(=O)c4ccc(OCC5(F)CCN(C6CCOCC6)CC5)c([N+](=O)[O-])c4)c(Oc4cnc5[nH]ccc5c4)c3)CC2)=C(c2ccc(Cl)cc2)C1 [Example 192, 4-(4-{[2-(4-chlorophenyl)-4,4-dimethylcyclohex-1-en-1-yl]methyl}piperazin-1-yl)-N-({4-[(4-fluoro-1-tetrahydro-2H-pyran-4-ylpiperidin-4-yl)methoxy]-3-nitrophenyl}sulfonyl)-2-(1H-pyrrolo[2,3-b]pyridin-5-yloxy)benzamide]
0.76 | CC1(C)CCC(CN2CCN(c3ccc(C(=O)NS(=O)(=O)c4ccc(OCC5(F)CCN(C6CCOC6)CC5)c([N+](=O)[O-])c4)c(Oc4cnc5[nH]ccc5c4)c3)CC2)=C(c2ccc(Cl)cc2)C1 (stereo not drawn) [Example 193, 4-(4-{[2-(4-chlorophenyl)-4,4-dimethylcyclohex-1-en-1-yl]methyl}piperazin-1-yl)-N-({4-[(4-fluoro-1-tetrahydrofuran-3-ylpiperidin-4-yl)methoxy]-3-nitrophenyl}sulfonyl)-2-(1H-pyrrolo[2,3-b]pyridin-5-yloxy)benzamide]
8.19 | CC1(C)CCC(CN2CCN(c3ccc(C(=O)NS(=O)(=O)c4ccc(OCC5(F)CCN(S(C)(=O)=O)CC5)c([N+](=O)[O-])c4)c(Oc4cnc5[nH]ccc5c4)c3)CC2)=C(c2ccc(Cl)cc2)C1 [Example 194, 4-(4-{[2-(4-chlorophenyl)-4,4-dimethylcyclohex-1-en-1-yl]methyl}piperazin-1-yl)-N-[(4-{[4-fluoro-1-(methylsulfonyl)piperidin-4-yl]methoxy}-3-nitrophenyl)sulfonyl]-2-(1H-pyrrolo[2,3-b]pyridin-5-yloxy)benzamide]
2.07 | CC1(C)CCC(CN2CCN(c3ccc(C(=O)NS(=O)(=O)c4ccc(NC[C@H]5CCN(C6COC6)C5)c([N+](=O)[O-])c4)c(Oc4cnc5[nH]ccc5c4)c3)CC2)=C(c2ccc(Cl)cc2)C1 [Example 195, 4-(4-{[2-(4-chlorophenyl)-4,4-dimethylcyclohex-1-en-1-yl]methyl}piperazin-1-yl)-N-{[3-nitro-4-({[(3R)-1-oxetan-3-ylpyrrolidin-3-yl]methyl}amino)phenyl]sulfonyl}-2-(1H-pyrrolo[2,3-b]pyridin-5-yloxy)benzamide]
12.5 | CN(C)CCCOc1ccc(CNc2ccc(S(=O)(=O)NC(=O)c3ccc(N4CCN(CC5=C(c6ccc(Cl)cc6)CC(C)(C)CC5)CC4)cc3Oc3cnc4[nH]ccc4c3)cc2[N+](=O)[O-])cc1 [Example 197, 4-(4-{[2-(4-chlorophenyl)-4,4-dimethylcyclohex-1-en-1-yl]methyl}piperazin-1-yl)-N-{[4-({4-[3-(dimethylamino)propoxy]benzyl}amino)-3-nitrophenyl]sulfonyl}-2-(1H-pyrrolo[2,3-b]pyridin-5-yloxy)benzamide]
36.2 | CC1(C)CCC(CN2CCN(c3ccc(C(=O)NS(=O)(=O)c4ccc(NCc5ccc(OCCN6CCOCC6)cc5)c([N+](=O)[O-])c4)c(Oc4cnc5[nH]ccc5c4)c3)CC2)=C(c2ccc(Cl)cc2)C1 [Example 198, 4-(4-{[2-(4-chlorophenyl)-4,4-dimethylcyclohex-1-en-1-yl]methyl}piperazin-1-yl)-N-[(4-{[4-(2-morpholin-4-ylethoxy)benzyl]amino}-3-nitrophenyl)sulfonyl]-2-(1H-pyrrolo[2,3-b]pyridin-5-yloxy)benzamide]
10.6 | CC1(C)CCC(CN2CCN(c3ccc(C(=O)NS(=O)(=O)c4ccc(OCC5CCCC(=O)C5)c([N+](=O)[O-])c4)c(Oc4cnc5[nH]ccc5c4)c3)CC2)=C(c2ccc(Cl)cc2)C1 (stereo not drawn) [Example 205, 4-(4-{[2-(4-chlorophenyl)-4,4-dimethylcyclohex-1-en-1-yl]methyl}piperazin-1-yl)-N-({3-nitro-4-[(3-oxocyclohexyl)methoxy]phenyl}sulfonyl)-2-(1H-pyrrolo[2,3-b]pyridin-5-yloxy)benzamide]
3.76 | CC1(C)CCC(CN2CCN(c3ccc(C(=O)NS(=O)(=O)c4ccc(N[C@@H]5CCN(C(CF)CF)C5)c([N+](=O)[O-])c4)c(Oc4cnc5[nH]ccc5c4)c3)CC2)=C(c2ccc(Cl)cc2)C1 [Example 207, 4-(4-{[2-(4-chlorophenyl)-4,4-dimethylcyclohex-1-en-1-yl]methyl}piperazin-1-yl)-N-{[4-({(3R)-1-[2-fluoro-1-(fluoromethyl)ethyl]pyrrolidin-3-yl}amino)-3-nitrophenyl]sulfonyl}-2-(1H-pyrrolo[2,3-b]pyridin-5-yloxy)benzamide]
4.5 | CC1(C)CCC(CN2CCN(c3ccc(C(=O)NS(=O)(=O)c4ccc(NC[C@@H]5CCN(C6COC6)C5)c([N+](=O)[O-])c4)c(Oc4cnc5[nH]ccc5c4)c3)CC2)=C(c2ccc(Cl)cc2)C1 [Example 209, 4-(4-{[2-(4-chlorophenyl)-4,4-dimethylcyclohex-1-en-1-yl]methyl}piperazin-1-yl)-N-{[3-nitro-4-({[(3S)-1-oxetan-3-ylpyrrolidin-3-yl]methyl}amino)phenyl]sulfonyl}-2-(1H-pyrrolo[2,3-b]pyridin-5-yloxy)benzamide]
